Laboratory results: US8445431B2, “Ligands having metal binding ability and targeting properties” (The Ohio State University, priority 2004, dated 2013)
No end group written: not given here.

What was measured:
[1] = tested on: GFP-RRE construct (RRE RNA fused downstream of GFP mRNA); assay type: cell-based, Escherichia coli; conditions: 10 μM final concentration; for GFP (GFP-RRE construct) expression, fluorescence intensity/total protein (mg) of control: control without any treatment
Procedure: Escherichia coli strain BL21 (DE3) cells containing pET-21 GFP (as non-specific cleavage control) or pET-21GFP-RRE plasmid were grown to an OD600 of around 0.6, and the over-expression was induced with 0.5 mM IPTG at 37° C. incubation. The cell pellets from 500 1 culture were resuspended in resuspension buffer,^3 then lysed with sonicating. After centrifugation (14,000 rpm for 20 min), the cell lysate for each sample was transferred onto 96 well plate and the fluorescence of GFP protein was monitored by a Perkin Elmer LS50B spectrofluorimeter. Excitation and emission wavelengths were set to 390 nm and 510 nm, respectively. The amount of total protein in each cell lysate was measured with Bio-Rad protein assay.
Basically, once the RRE RNA fused downstream of the GFP mRNA is recognized and cleaved by metal-rev peptide complexes, the expression level of GFP protein will decrease accordingly, which can be monitored by the fluorescence intensity.
The expression level of GFP (GFP-RRE construct) was managed by the fluorescent emission intensity at 510 nm, with λex=390 nm. […] To correct the influence of the total number of cells lysated, the fluorescent emission intensity at 510 nm was divided by the amount of total protein for each sample.

RRE RNA = RRE RNA cleavage, denaturing PAGE and mass spectrometry; assay type: biochemical, HIV; conditions: for RRE RNA cleavage (PAGE / mass spectrometry): in the presence of ascorbate, 1:1 with RRE RNA, 37° C., 6 hours; for t1 of RRE RNA substrate decrease: [RRE]=5 μM, complex/RRE 1:1, 37° C.
Procedure: Control reactions were carried out at the same time (FIG. 18). The reactions were quenched with a loading buffer containing 8 M Urea and 0.5 M EDTA, but without dyes. The loading buffer with dyes was run in another lane to control the electrophoresis. The reaction samples were loaded onto either 15% or 20% polyacrylamide/8M urea denaturing gels (from American Bioanalytical) and electrophoresed at 300 V for 8 h. To avoid any influence on fluorescein, the reactions and gel eletrophoresis were performed in the dark. Each experiment was carried out at least in triplicate.
RNA cleavage reactions were performed in 40 μl total volumes with 100 μM unlabeled RRE RNA, 1:1 concentration ratio of Cu-peptide complex with 1 mM ascorbate in 20 mM Hepes buffer, 100 mM NaCl, pH=7.4 at 37° C. Control reactions were carried out with RRE RNA and ascorbate. ESI/MS was used to get the mass of the cleavage products. Electrospray ionization (ESI) experiments were performed on a Micromass Q-Tof™ II (Micromass, Wythenshawe, UK) mass spectrometer equipped with an orthogonal nanospray source from New Objective, Inc. (Woburn, Mass.) operated in negative ion mode. Sodium Iodide was used for mass calibration for a calibration range of m/z 500-3000. Salt buffers from the RNA samples were removed using ZipTips (Millipore, Billerica, Mass.) following recommended manufacturer protocols. The elutants from the ZipTip were used directly and infused into the electrospray source at a rate of […]. Optimal ESI conditions were: capillary voltage 3000 V, source temperature 110° C. and a cone voltage of 60 V. Q1 was set to optimally pass ions from m/z 500-3000 and all ions transmitted into the pusher region of the TOF analyzer were scanned over m/z (your ramge) with a 1 s integration time. Data was acquired in continuum mode until acceptable averaged data was obtained (10-15 minutes). ESI data was deconvoluted using MaxEnt I provided by Micromass (FIGS. 19-21) and the cleavage sites were assigned (FIG. 22).

HIV RRE RNA = assay: Fluorescence quenching binding to 5'-fluorescein labeled RRE RNA; conditions: 20 mM Hepes, 100 mM NaCl, pH 7.4, room temperature
Procedure: (§1) A 6 nM solution of 5′-fluorescein labeled RRE RNA (molecular concentration) was prepared in 20 mM Hepes buffer, 100 mM NaCl, pH=7.4. A 1 μl aliquot of 5 μM (for RRE test) or 25 μM (for TAR test) peptide or Cu-peptide complex was measured in a 300 μl quartz cuvette at room temperature using a Perkin Elmer LS50B spectrofluorimeter, with excitation (slit=6) and emission (slit=6) wavelengths set at 490 nm and 515 nm, respectively. Dissociation constants were obtained by fitting fluorescence quenching date to a one site binding equation r=Bx/(Kd+X) with binding function r (where r=(yt−y0)/(yfinal−yinitial)) versus x as peptide or Cu-peptide complex concentration (FIG. 17). The values for the dilution effect have already been subtracted from each point. Since our Cu-Rev1 complex has very little absorbance (ε515˜30 M^−1cm^−1), the inner filter effect is negligible in this assay.

HIV TAR RNA = assay: Fluorescence quenching binding to 5' FL-labeled TAR RNA (binding specificity); conditions: 20 mM Hepes, 100 mM NaCl, pH 7.4, room temperature
Procedure: as §1

HCV IRES RNA [2] = assay: Binding to fluorescein-labeled HCV IRES, 96-well fluorescent reader; conditions: 10 nM HCV IRES, 50 mM HEPES pH 7.0, 100 mM NaCl, 2 mM MgCl2; read-out: dissociation constant between HCV IRES and the ligand
Procedure: The binding constants for peptides to HCV IRES was determined by fluorescence methods. The sequence of the HCV IRES RNA is: […] (SEQ ID NO: 33). The sequence of the peptide recognition motif is: Y-(D)-RFK. The sequence of the metal binding peptide is: GGH. The sequence of the ligand having a metal binding domain and a recognition domain is GGHGY-(D)-RFK, where (D) indicates a (D) configuration amino acid.
A 10 nM HCV IRES with a fluoroscein label was titrated with increasing concentrations of the ligand, ranging from 5 to 1000 nM in a 50 mM HEPES pH 7.0, 100 mM NaCl, 2 mM MgCl2 to a total volume […]. The water used in this experiment was treated with DEPC at 37° C. overnight and autoclaved. HCV IRES RNA was heated at 95° C. for three minutes, and then slowly cooled to the room temperature. The binding event was determined by 96-well fluorescent reader with excitation wavelength at 494 nm and emission wavelength at 520 nm. The result data was plotted as fraction versus peptide concentration (FIG. 29) and then fitted with one site-binding model, where y is equal to API, and x is peptide concentration. y=Bx/(Kd+x)

HCV IRES RNA [3] = assay: HCV IRES RNA cleavage, denaturing gel; assay type: biochemical; conditions: RNA 2 μM, RNA to metal complex 1 to 10, 1 mM ascorbic acid, 37° C., 24 hours
Procedure: The cleavage of HCV IRES RNA by GGHG-(D) peptide copper complexes was studied. […] The HCV IRES RNA cleavage reactions by peptide copper complexes, free Cu^2+, or other peptide metal complexes were carried out at 37° C. in a buffer of 50 mM HEPES pH 7.0, 100 mM NaCl, 2 mM MgCl2. After reactions, 2 μL of loading buffer containing 10% glycerol, 0.05M EDTA, and 6M urea was added into each 10 μL reaction mixture and was then heated at 95° C. for 5 min before loading into 20% acrylamide, 8M urea gel with 0.5×TAE buffer and running voltage around 100 V for overnight. Before cleavage reaction, HCV IRES RNA was heated at 95° C. for 5 min and cooled to room temperature in order to fold into correct structure.
The concentration of RNA in cleavage reaction is 2 μM. The ratio of RNA to metal complexes is 1 to 10. The oxidative cleavage reaction is performed by adding ascorbic acid to a final concentration of 1 mM and a total volume of 10 μL at 37° C. for 24 hours. The result of the cleavage reaction is obtained by running a 20% denaturing polyacrylamide gel. […] No hydrolytic product has been observed from the result. […]
The time-dependence of cleavage was also examined. […] After the reaction is finished, the result of the reaction is analyzed by running 20% acrylamide gel. The cleavage effect by peptide copper complexes is analyzed by the intensity of the fluorescent image of each band by Biorad GelDoc. […]

[4] = tested on: pUC19 supercoiled plasmid DNA; assay: Plasmid DNA cleavage, agarose gel electrophoresis and quantitation; assay type: biochemical
Procedure: Plasmid pUC19 (2686 bp) was purchased from New England Biolabs Inc. The plasmid was transformed into DH5α competent cells, amplified, and pure plasmid isolated using QIAGEN protocols. Fresh plasmid DNA (over 90-95% supercoiled) was prepared before each experiment to avoid contamination by any other form of plasmid DNA. In general, DNA cleavage experiments were performed with 50 μM base pair concentration of pUC19, 25 μM Cu-peptide, and 250 μM ascorbate in 10 mM Tris buffer, pH 7.4, at 37° C. A control reaction was carried out using the same conditions as the cleavage reaction, but lacking the Cu-peptide complex. The reactions were quenched with a loading buffer containing 0.5 M EDTA.
Agarose gel electrophoresis (0.8%) containing ethidium bromide was performed under standard conditions. DNA samples were run on horizontal gels in 1×TAE buffer for 90 min at […].
Quantitation of closed circular, nicked and linear DNA was made by densitometric analysis of ethidium bromide containing agarose gels. Quantitation was performed by fluorescence imaging by use of a Gel-Doc 1000 (BioRad) and data analysis with Multianalysis software (version 1.1) provided by the manufacturer using the volume quantitation method. In all cases, background fluorescence was subtracted by reference to a lane containing no DNA. A correction factor of 1.47 was used for supercoiled DNA, since the ability of ethidium bromide to intercalate into supercoiled DNA (form I) is decreased relative to nicked (form II) and linear DNA (form III). The fraction of each form of DNA was calculated by dividing the intensity of each band by the total intensities of all the bands in the lane. All results were obtained from experiments that were performed at least in triplicate.
Consequently, the reaction was considered in terms of the standard rate law shown in equation 3. The initial rate (V0) corresponding to less than 5% conversion was considered as a function of [complex]^+ (equation 4 and 5). Rate=V=d[DNA]/dt=kobs[complex]t^m (3) • where kobs=kn, [DNA] when t=0, V0=kobs[complex]0^m (4) and ln V0=m ln[complex]0+ln kobs (5) A plot of ln V0 versus ln [[GGH-Cu]^−]0 at constant DNA concentration produced a straight line relationship (R^2=0.99) (FIG. 27A).
Investigation of DNA linearization. Following cleavage, the fraction of full length linear DNA, f(III), is related to the number, n2, of double-strand breaks per molecule given by the first term of a Poisson distribution (equation 1). f(III)=n2exp(−n2) (1) The sum of single-strand, n1, and double-strand, n2, breaks per molecule (n1+n2) was determined from the fraction f(I) of supercoiled DNA remaining after treatment with the [peptide-Cu] reagent. f(I)=exp[−(n1+n2)] […] In these studies, both n1 and n2 were calculated by use of equations (1) and (2).

## GGHTRQARRNRRRRWRERQR [Rev1]
[1]
  GFP (GFP-RRE construct) expression, fluorescence intensity/total protein (mg) of control: around 40%
RRE RNA
  RRE RNA cleavage (PAGE / mass spectrometry): no reaction was observed
HIV RRE RNA
  Kd: ~30 nM
HIV TAR RNA
  Kd: ~5000 nM

## copper complex of Rev1 peptide GGHTRQARRNRRRRWRERQR [Cu-Rev1]
[1]
  GFP (GFP-RRE construct) expression, fluorescence intensity/total protein (mg) of control: around 40%
RRE RNA; hydrolytic condition
  RRE RNA cleavage in the absence of ascorbate: much slower pace
  t1 of RRE RNA substrate decrease: 6.36 h
RRE RNA; listed as Cu-Rev1 peptide complex
  RRE RNA cleavage (PAGE / mass spectrometry): three specific cleavage sites
RRE RNA; listed as Cu-peptide complex
  RRE RNA cleavage (PAGE / mass spectrometry): effective
RRE RNA; oxidative condition with ascorbate
  t1 of RRE RNA substrate decrease: 4.75 h
HIV RRE RNA
  Kd: ~35 nM
HIV TAR RNA
  Kd: ~5000 nM

## GGHGY-(D)-RFK [the ligand]
HCV IRES RNA [2]
  Kd: 5.2 nM

## TRQARRNRRRRWRERQR [Rev peptide, reference compound]
[1]
  effect on GFP (GFP-RRE construct) expression: No decrease

## [Cu+2] [Cu^2+(aq), reference compound]
RRE RNA
  RRE RNA cleavage (PAGE / mass spectrometry): random cleavage
HCV IRES RNA [3]
  HCV IRES RNA cleavage (gel): efficiency is significantly lower
[4]; with ascorbate
  DNA cleavage products / pattern on gel: smear pattern

## [GGH-Cu]^−: complex of peptide GGH with divalent copper (Gly-Gly-His; also: complex with divalent copper)
[4]; [DNA]=50 μM, complex 25 μM, ascorbate 250 μM
  time to quantitative production of nicked plasmid DNA (form II): ≤ 28 min
[4]; [DNA]=50 μM, complex 25 μM, ascorbate 250 μM, 10 mM Tris pH 7.4, 37° C.
  kobs, pseudo-first order disappearance of supercoiled DNA: ~0.07 min⁻¹
[4]; from ln V0 plots, with ascorbate
  k2, second-order rate constant of DNA cleavage: ~39 M⁻¹ s⁻¹
[4]; in the presence of ascorbate
  concentration at which DNA cleavage activity is evident: 10 µM
[4]; with ascorbate
  DNA cleavage products / pattern on gel: linear DNA was not found
